The record followed here is patent publication US10183010B2, “2-oxo-1,2-dihydrobenzo[cd]indole compound and use thereof” (Guangzhou Institutes of Biomedicine and Health, Chinese …, priority 2015, dated 2019).

For experiment [1], the target named is T1, BRD4(1) protein (Homo sapiens, UniProt O60885).
T1 construct: BRD4(1) protein, 500 nM; inferred from the use of nickel acceptor beads
The experiment can be described thus: AlphaScreen assay: disruption of the interaction of BRD4(1) and biotinylated acetylated peptide. The class given is binding. As to conditions: BRD4(1) protein with H4KAc4-biotin peptide, 20° C. The procedure, abridged: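 BRD4(1) at 500 nM was incubated with biotinylated tetra-acetylated H4 peptide (50 nM) in MOPS/CHAPS/NaF/BSA buffer, pH 7.4, with streptavidin donor and nickel acceptor beads (50 μg/mL each). Incubation ran 1 h at 20 °C in the dark before AlphaScreen signal read-out.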

In experiment [2] the target is T1, BRD4(1) protein. As to the kind of experiment: TSA assay: thermodynamic stability of BRD4(1). The class given is binding. The conditions noted are these: SYPRO Orange, 30° C. to 80° C. In outline: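 Thermal shift of BRD4(1) protein (100 μM stock) with compound (400 μM stock) in MOPS 50 mM/NaCl 150 mM/10% glycerol, pH 7.5, SYPRO Orange 1:1000, pre-incubated on ice 30 min, DMSO <2%. Melting ramp 30–80 °C at 0.5 °C/min with fluorescence read every 0.5 °C; ΔTm reported.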

`CCN1C(=O)c2cccc3c(NS(=O)(=O)c4cccc(C(=O)O)c4)ccc1c23` [Example 28, 3-(N-(1-ethyl-2-oxo-1,2-dihydrobenzo[cd]indol-6-yl)sulfamoyl)benzoic acid] registered an IC50 at BRD4(1) protein [1] of 3.51 µM. The “TSA ΔTm” value on BRD4(1) protein [2] amounted to 5.7 °C.
For `CCCCNS(=O)(=O)c1ccc2c3c(cccc13)C(=O)N2CC(C)C` [Example 116, N-butyl-1-isobutyl-2-oxo-1,2-dihydrobenzo[cd]indole-6-sulfonamide] the same measures were over 20 µM and 0 °C.
For `CCCS(=O)(=O)Nc1ccc2c3c(cccc13)C(=O)N2CC` [Example 20, N-(1-ethyl-2-oxo-1,2-dihydrobenzo[cd]indol-6-yl)propane-1-sulfonamide] the same measures were 1.25 µM and 7.0 °C.
On the same counts, the results for `CCN1C(=O)c2cccc3c(S(=O)(=O)NCCS(C)(=O)=O)ccc1c23` [Example 80, 1-ethyl-N-(2-(methylsulfonyl)ethyl)-2-oxo-1,2-dihydrobenzo[cd]indole-6-sulfonamide] are over 20 µM and 1.7 °C.
As for `CCN1C(=O)c2cccc3c(NS(=O)(=O)c4ccc5c(c4)OCCO5)ccc1c23` [Example 29, N-(1-ethyl-2-oxo-1,2-dihydrobenzo[cd]indol-6-yl)-2,3-dihydrobenzo[b][1,4]dioxine-6-sulfonamide], the IC50 at BRD4(1) protein [1] is 2.73 µM. Besides, at BRD4(1) protein [2], the “TSA ΔTm” value turned out to be 6.3 °C.
For `CCN1C(=O)c2cccc3c(S(=O)(=O)NCCCN4CCN(C)CC4)ccc1c23` [Example 101, 1-ethyl-N-(3-(4-methylpiperazin-1-yl)propyl)-2-oxo-1,2-dihydrobenzo[cd]indole-6-sulfonamide] the same measures were 4.17 µM and 5 °C.
On the same counts, the results for `CCN1C(=O)c2cccc3c(NC(=O)Cc4ccc(C)cc4)ccc1c23` [Example 54, N-(1-ethyl-2-oxo-1,2-dihydrobenzo[cd]indol-6-yl)-2-(p-tolyl)acetamide] are over 20 µM and 0 °C.
For `CCN1C(=O)c2cccc3c(S(=O)(=O)NC4CCOC4)ccc1c23` (stereo not shown) [Example 92, 1-ethyl-2-oxo-N-(tetrahydrofuran-3-yl)-1,2-dihydrobenzo[cd]indole-6-sulfonamide] the same measures were 1.67 µM and 6.1 °C.
For `CCN1C(=O)c2cccc3c(S(=O)(=O)Nc4ccc(NC(C)=O)cc4)ccc1c23` [Example 75, N-(4-(1-ethyl-2-oxo-1,2-dihydrobenzo[cd]indole-6-sulfonamido)phenyl)acetamide], the IC50 on BRD4(1) protein [1] stood at 4.7 µM. For the same molecule, the “TSA ΔTm” value on BRD4(1) protein [2] was 3.5 °C.
At BRD4(1) protein [1], `CCN1C(=O)c2cccc3c(S(=O)(=O)Nc4ccccc4)ccc1c23` [Example 121, 1-ethyl-2-oxo-N-phenyl-1,2-dihydrobenzo[cd]indole-6-sulfonamide] showed an IC50 of 1.09 µM. Also, the “TSA ΔTm” value on BRD4(1) protein [2] stood at 7.5 °C.
For `CCN1C(=O)c2cccc3c(NS(=O)(=O)Cc4ccccc4F)ccc1c23` [Example 42, N-(1-ethyl-2-oxo-1,2-dihydrobenzo[cd]indol-6-yl)-1-(2-fluorophenyl)methanesulfonamide] the same measures were 4.15 µM and 6 °C.
